Laboratory results from PMC6858373 (Scientific Reports, 2019).
Where a name gives a salt, the structure may show the parent alone. Read-outs that look alike come from different tables or passages of the source.

Key:
[1] = target: T1, FGF14:Nav1.6 C-tail complex (Homo sapiens, UniProt Q92915+Q9UQD0); assay: Split-luciferase complementation assay (LCA) in Clone V double stable HEK293 cells; assay type: cell-based; conditions: for Split Luciferase Assay % Lum Set 1 / Split Luciferase Assay %Lum Set 2 / Split Luciferase Assay Z-score Set 1 / Split Luciferase Assay Z-score Set 2 / Split Luciferase Assay %Lum Avg: CC_NCI screening; for Split Luciferase Assay % Lum Set 1 / Split Luciferase Assay %Lum Set 2: LCA luminescence, normalized to on-plate 0.3% DMSO controls (n=16 per plate); for Split Luciferase Assay % Lum Set 1 / Split Luciferase Assay Z-score Set 1: biological replicate Set 1; for Split Luciferase Assay %Lum Set 2 / Split Luciferase Assay Z-score Set 2: biological replicate Set 2; for Split Luciferase Assay Z-score Set 1 / Split Luciferase Assay Z-score Set 2: LCA, normalized to on-plate 0.3% DMSO controls; for Split Luciferase Assay %Lum Avg: average of Set 1 and Set 2, normalized to 0.3% DMSO controls
T1 construct: polymerase chain reaction (PCR) amplification of the FGF14 open reading frame (nt 1–855); C-terminal fragment of Nav1.6 (amino acids 1763–1976) fused with CD4ΔC-tail (amino acids 1–395); expressed in transfected cells
T1 sequence (Q92915 1-252 isoform Q92915-2): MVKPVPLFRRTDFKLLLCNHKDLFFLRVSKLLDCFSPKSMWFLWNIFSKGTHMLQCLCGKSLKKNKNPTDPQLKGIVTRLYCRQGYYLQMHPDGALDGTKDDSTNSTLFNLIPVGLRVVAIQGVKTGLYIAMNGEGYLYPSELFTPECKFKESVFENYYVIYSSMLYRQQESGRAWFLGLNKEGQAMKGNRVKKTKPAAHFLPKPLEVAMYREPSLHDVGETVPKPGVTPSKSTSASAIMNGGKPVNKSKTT
T1 sequence (Q9UQD0 1763-1976 limits assumed): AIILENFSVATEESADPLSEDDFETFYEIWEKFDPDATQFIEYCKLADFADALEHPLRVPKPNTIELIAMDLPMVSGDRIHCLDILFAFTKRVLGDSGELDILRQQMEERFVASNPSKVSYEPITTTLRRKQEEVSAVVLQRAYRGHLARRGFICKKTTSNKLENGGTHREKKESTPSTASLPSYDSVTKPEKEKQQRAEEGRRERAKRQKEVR

Clone V cells [2] = assay: CellTiter Blue (CTB) cell viability counter-screen; conditions: for Toxicity Assay Z-score: CTB cell viability
Clone V cells [3] = conditions: human, 16 h, 30 µM
[4] = target: full-length P. pyralis luciferase (Photinus pyralis, UniProt P08659, K549A/L550V/N119G/N50D/S548I); assay type: cell-based; conditions: CC_NCI screening, normalized to on-plate 0.3% DMSO controls; for Luciferase Assay % Lum: full-length luciferase counter-screen luminescence; for Luciferase Assay Z-score: full-length luciferase counter-screen
Sequence of full-length P. pyralis luciferase (P08659 whole entry N50D/N119G/S548I/K549A/L550V, looked up): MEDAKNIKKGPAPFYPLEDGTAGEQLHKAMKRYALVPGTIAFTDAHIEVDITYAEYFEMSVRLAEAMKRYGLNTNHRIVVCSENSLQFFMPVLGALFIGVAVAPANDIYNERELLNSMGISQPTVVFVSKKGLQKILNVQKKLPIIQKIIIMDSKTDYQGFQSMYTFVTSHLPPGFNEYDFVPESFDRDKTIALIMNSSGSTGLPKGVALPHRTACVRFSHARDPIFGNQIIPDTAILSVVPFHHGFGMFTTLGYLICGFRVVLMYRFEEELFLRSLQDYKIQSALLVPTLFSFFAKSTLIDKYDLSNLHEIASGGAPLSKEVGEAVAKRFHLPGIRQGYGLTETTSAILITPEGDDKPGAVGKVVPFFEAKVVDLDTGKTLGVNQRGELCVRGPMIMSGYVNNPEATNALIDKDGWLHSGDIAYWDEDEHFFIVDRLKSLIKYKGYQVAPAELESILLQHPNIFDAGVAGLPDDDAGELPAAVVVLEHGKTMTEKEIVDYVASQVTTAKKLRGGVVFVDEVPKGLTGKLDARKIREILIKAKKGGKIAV

[5] = CC_NCI screening, CTB cell viability fluorescence, normalized to on-plate 0.3% DMSO controls
[6] = CC_NCI screening, normalized to on-plate 0.3% DMSO controls

SMILES: N#Cc1ccc(C(c2ccc(C#N)cc2)n2cncn2)cc1 [Letrozole]
- Split Luciferase Assay % Lum Set 1 [1]: 99.25%
- Split Luciferase Assay %Lum Set 2 [1]: 115.47%
- Split Luciferase Assay Z-score Set 1 [1]: -0.06
- Split Luciferase Assay Z-score Set 2 [1]: 1.26
- Split Luciferase Assay %Lum Avg [1]: 107.36%
- Toxicity Assay % Fluor (Clone V cells [2]; [5]): 93.68%
- Toxicity Assay Z-score (Clone V cells [3]): -0.88
- Luciferase Assay % Lum [4]: 99.90%
- Luciferase Assay Z-score [4]: -0.01

SMILES: O=C1CCC(N2C(=O)c3ccccc3C2=O)C(=O)N1 (stereo not shown) [Thalidomide]
- Split Luciferase Assay % Lum Set 1 [1]: 128.60%
- Split Luciferase Assay %Lum Set 2 [1]: 108.19%
- Split Luciferase Assay Z-score Set 1 [1]: 2.31
- Split Luciferase Assay Z-score Set 2 [1]: 0.67
- Split Luciferase Assay %Lum Avg [1]: 118.40%
- Toxicity Assay % Fluor (Clone V cells [2]; [5]): 87.53%
- Toxicity Assay Z-score (Clone V cells [3]): -1.74
- Luciferase Assay % Lum [4]: 100.85%
- Luciferase Assay Z-score [4]: 0.11

SMILES: CC[C@]1(O)C[C@H]2CN(CCc3c([nH]c4ccccc34)[C@@](C(=O)OC)(c3cc4c(cc3OC)N(C=O)[C@H]3[C@@](O)(C(=O)OC)[C@H](OC(C)=O)[C@]5(CC)C=CCN6CC[C@]43[C@@H]65)C2)C1 [Vincristine sulfate]
- Split Luciferase Assay % Lum Set 1 [1]: 200.35%
- Split Luciferase Assay %Lum Set 2 [1]: 196.62%
- Split Luciferase Assay Z-score Set 1 [1]: 8.11
- Split Luciferase Assay Z-score Set 2 [1]: 7.86
- Split Luciferase Assay %Lum Avg [1]: 198.49%
- Toxicity Assay % Fluor (Clone V cells [2]; [5]): 98.56%
- Toxicity Assay Z-score (Clone V cells [3]): -0.20
- Luciferase Assay % Lum [4]: 109.71%
- Luciferase Assay Z-score [4]: 1.24

SMILES: CN(C)CC[C@H](CSc1ccccc1)Nc1ccc(S(=O)(=O)NC(=O)c2ccc(N3CCN(Cc4ccccc4-c4ccc(Cl)cc4)CC3)cc2)cc1[N+](=O)[O-] [ABT-737]
- Split Luciferase Assay % Lum Set 1 [1]: 132.95%
- Split Luciferase Assay %Lum Set 2 [1]: 126.92%
- Split Luciferase Assay Z-score Set 1 [1]: 2.66
- Split Luciferase Assay Z-score Set 2 [1]: 2.19
- Split Luciferase Assay %Lum Avg [1]: 129.94%
- Toxicity Assay % Fluor (Clone V cells [2]; [5]): 107.35%
- Toxicity Assay Z-score (Clone V cells [3]): 1.03
- Luciferase Assay % Lum [4]: 95.47%
- Luciferase Assay Z-score [4]: -0.58

SMILES: CS(=O)(=O)CCNCc1ccc(-c2ccc3ncnc(Nc4ccc(OCc5cccc(F)c5)c(Cl)c4)c3c2)o1 [LAPATINIB]
- Split Luciferase Assay %Lum Set 2 [1]: 95.71%
- Split Luciferase Assay Z-score Set 2 [1]: -0.35
- Split Luciferase Assay %Lum Avg [1]: 107.26%
- Toxicity Assay % Fluor (Clone V cells [2]; [5]): 85.57%
- Toxicity Assay Z-score (Clone V cells [3]): -2.02
- Luciferase Assay % Lum [4]: 87.41%
- Luciferase Assay Z-score [4]: -1.61

SMILES: CC[C@@H]1C(=O)N(C)c2cnc(Nc3ccc(C(=O)NC4CCN(C)CC4)cc3OC)nc2N1C1CCCC1 [BI 2536, reference compound]
- Toxicity Assay % Fluor (Clone V cells [2]): 99.22%
- Toxicity Assay Z-score (Clone V cells [3]): -0.11

SMILES: CCC1=C[C@@H]2CN(C1)Cc1c([nH]c3ccccc13)[C@@](C(=O)OC)(c1cc3c(cc1OC)N(C)[C@H]1[C@@](O)(C(=O)OC)[C@H](OC(C)=O)[C@]4(CC)C=CCN5CC[C@]31[C@@H]54)C2 [Vinorelbine tartrate]
- Split Luciferase Assay % Lum Set 1 [1]: 231.88%
- Split Luciferase Assay %Lum Set 2 [1]: 185.18%
- Split Luciferase Assay Z-score Set 1 [1]: 10.66
- Split Luciferase Assay Z-score Set 2 [1]: 6.93
- Split Luciferase Assay %Lum Avg [1]: 208.53%
- Toxicity Assay % Fluor (Clone V cells [2]; [5]): 88.42%
- Toxicity Assay Z-score (Clone V cells [3]): -1.62
- Luciferase Assay % Lum [4]: 110.51%
- Luciferase Assay Z-score [4]: 1.35

SMILES: COC(=O)C[C@](O)(CCCC(C)(C)O)C(=O)O[C@@H]1C(OC)=C[C@]23CCCN2CCc2cc4c(cc2[C@H]13)OCO4 [Omacetaxine mepesuccinate]
- Split Luciferase Assay % Lum Set 1 [1]: 20.98%
- Split Luciferase Assay %Lum Set 2 [1]: 19.77%
- Split Luciferase Assay Z-score Set 1 [1]: -6.39
- Split Luciferase Assay Z-score Set 2 [1]: -6.53
- Split Luciferase Assay %Lum Avg [1]: 20.37%
- Toxicity Assay % Fluor (Clone V cells [2]; [5]): 93.81%
- Toxicity Assay Z-score (Clone V cells [3]): -0.87
- Luciferase Assay % Lum [4]: 87.82%
- Luciferase Assay Z-score [4]: -1.56

SMILES: C=CC[C@@H]1/C=C(\C)C[C@H](C)C[C@H](OC)[C@H]2O[C@@](O)(C(=O)C(=O)N3CCCC[C@H]3C(=O)O[C@H](/C(C)=C/[C@@H]3CC[C@@H](O)[C@H](OC)C3)[C@H](C)[C@@H](O)CC1=O)[C@H](C)C[C@@H]2OC [FK-506]
- Split Luciferase Assay % Lum Set 1 [1]: 80.77%
- Split Luciferase Assay %Lum Set 2 [1]: 91.55%
- Split Luciferase Assay Z-score Set 1 [1]: -1.55
- Split Luciferase Assay Z-score Set 2 [1]: -0.69
- Split Luciferase Assay %Lum Avg [1]: 86.16%
- Toxicity Assay % Fluor (Clone V cells [2]; [5]): 113.03%
- Toxicity Assay Z-score (Clone V cells [3]): 1.82
- Luciferase Assay % Lum [4]: 77.49%
- Luciferase Assay Z-score [4]: -2.88

SMILES: C[C@]12O[C@H](C[C@]1(O)CO)n1c3ccccc3c3c4c(c5c6ccccc6n2c5c31)CNC4=O [Lestaurtinib, reference compound]
- Z-score (LCA primary screening) ([1]; 30 µM, 384-well, average of primary screening (n = 2), vs on-plate 0.3% DMSO): −4.42
- dose-response behavior of repurchased compounds ([1]; 10-point dose response 0.25-50 µM, Clone V cells): purely inhibitory effects
- Split Luciferase Assay % Lum Set 1 [1]: 50.33%
- Split Luciferase Assay %Lum Set 2 [1]: 40.57%
- Split Luciferase Assay Z-score Set 1 [1]: -4.01
- Split Luciferase Assay Z-score Set 2 [1]: -4.84
- Split Luciferase Assay %Lum Avg [1]: 45.45%
- IC50 ([1]; IC50 (µM), estimated, 8-point dose response 0.25-30 µM, n = 4 per concentration, library compounds): 1.22 µM
- IMin (% Luminescence) ([1]; antagonists, Clone V cells, 384-well, normalized to DMSO): 45.45 % Luminescence
- action toward the FGF14:Nav1.6 C-tail interaction ([1]; dose-dependency validation using fresh compound samples): acted as antagonists
- IC50 ([1]; in-cell IC50, repurchased compounds, 10-point dose response 0.25-50 µM, n = 8 per concentration, Clone V cells, 384-well): 0.95 µM
- Toxicity Assay % Fluor (Clone V cells [2]; [5]): 90.16%
- Luciferase Assay % Lum [4]: 87.58%
- Luciferase Assay Z-score [4]: -1.59

SMILES: C[C@]1(c2nc3c(C(N)=O)cccc3[nH]2)CCCN1 [ABT-888]
- Split Luciferase Assay % Lum Set 1 [1]: 75.34%
- Split Luciferase Assay %Lum Set 2 [1]: 93.63%
- Split Luciferase Assay Z-score Set 1 [1]: -1.99
- Split Luciferase Assay Z-score Set 2 [1]: -0.52
- Split Luciferase Assay %Lum Avg [1]: 84.48%
- Toxicity Assay % Fluor (Clone V cells [2]; [5]): 107.03%
- Toxicity Assay Z-score (Clone V cells [2]; [6]): 0.98
- Luciferase Assay % Lum [4]: 105.22%
- Luciferase Assay Z-score [4]: 0.67

SMILES: COc1cc2c(Nc3ccc(Br)cc3F)ncnc2cc1OCC1CCN(C)CC1 [Vandetanib]
- Split Luciferase Assay % Lum Set 1 [1]: 89.47%
- Split Luciferase Assay %Lum Set 2 [1]: 115.47%
- Split Luciferase Assay Z-score Set 1 [1]: -0.85
- Split Luciferase Assay Z-score Set 2 [1]: 1.26
- Split Luciferase Assay %Lum Avg [1]: 102.47%
- Toxicity Assay % Fluor (Clone V cells [2]; [5]): 97.46%
- Toxicity Assay Z-score (Clone V cells [2]; [6]): -0.36
- Luciferase Assay % Lum [4]: 80.83%
- Luciferase Assay Z-score [4]: -2.46

SMILES: CN1CCN(CCOc2cc(OC3CCOCC3)c3c(Nc4c(Cl)ccc5c4OCO5)ncnc3c2)CC1 [AZD 0530]
- Split Luciferase Assay % Lum Set 1 [1]: 36.20%
- Split Luciferase Assay %Lum Set 2 [1]: 60.34%
- Split Luciferase Assay Z-score Set 1 [1]: -5.16
- Split Luciferase Assay Z-score Set 2 [1]: -3.23
- Split Luciferase Assay %Lum Avg [1]: 48.27%
- Toxicity Assay % Fluor (Clone V cells [2]; [5]): 89.05%
- Toxicity Assay Z-score (Clone V cells [2]; [6]): -1.53
- Luciferase Assay % Lum [4]: 98.71%
- Luciferase Assay Z-score [4]: -0.17

SMILES: Nc1nc(Cl)nc2c1ncn2[C@H]1C[C@H](O)[C@@H](CO)O1 [Cladribine]
- Split Luciferase Assay Z-score Set 2 [1]: 3.04
- Toxicity Assay % Fluor (Clone V cells [2]; [5]): 83.86%
- Toxicity Assay Z-score (Clone V cells [2]; [6]): -2.26
- Luciferase Assay % Lum [4]: 98.25%
- Luciferase Assay Z-score [4]: -0.22
